Results published in patent US11130768B2, “Bicyclic pyrazole derivatives” (Bayer Animal Health GMBH, priority 2017, dated 2021).

Experiments:
[1] = system: Dirofilaria immitis microfilariae; test: In Vitro Assay 3: Dirofilaria immitis microfilariae (DIROIM L1), motility; conditions: 72 h, read-out: EC50 (reduction of motility)
C. elegans Slo-1a = C. elegans Slo-1a (Caenorhabditis elegans, UniProt Q95V25)
Method: In Vitro Assay 1: C. elegans Slo-1a—Action at a Recombinant C. elegans Cell Line
Generation of a Stable C. elegans CHO Cell Line
A CHO cell line was obtained from ATCC, code ATCC CRL-9096. For transfection with plasmid DNA to express C. elegans Slo-1a (accession number AAL28102) CHO cells were passaged to 40% confluence before adding the transfection solution to the cell culture. The transfection solution included 300 μL OptiMEM (Life Technologies, Nr.: 31985), 2 μL (=6 μg) of plasmid DNA containing the C. elegans Slo 1a gene and 9 μL FugeneHD (Promega, Nr.: E2311), and was added to the cells prior to incubation for 48 hours at 37° C., 5% CO2. The transfection medium was exchanged for the selection medium which contains additional G418 (2 mg/ml, Invitrogen, Nr.: 10131) and the cells were seeded into 384 well plates (300 cells/well). After a few weeks, the remaining surviving cells were tested with a voltage sensitive dye (Membrane Potential Assay Kit, Molecular Devices Nr.: R8034) for K+ channel expression. Positive cell clones were purified by the limited dilution technique. For this the clone with the highest and most robust signal in the voltage sensitive dye assay was further subcloned (incubated) in 384 well plates (0.7 cells/well) in order to obtain clonal purity. This generated a final stable CHO cell line expressing the C. elegans Slo-1a.
Cells were cultured at 37° C. and 5% CO2 in MEMalpha with Gutamax I (Invitrogen, Nr.: 32571), supplemented with 10% (v/v) heat inactivated fetal bovine serum (Invitrogen, Nr.: 10500), G418 (1 mg/ml, Invitrogen, Nr.: 10131). Cells were detached using Accutase (Sigma, Nr.: A6964).
Membrane Potential Measurements
Laboratory compound testing was performed on 384-well microtiter plates (MTPs, Greiner, Nr.: 781092). 8000 cells/well were plated onto 384-well MTPs and cultured for 20 to 24 hours at 37° C. and 5% CO2. After removal of the cell culture medium, the cells were washed once with tyrode (150 mM NaCl, 0.3 mM KCl, 2 mM CaCl2, 1 mM MgCl2, 0.8 mM NaH2PO4, 5 mM Glucose, 28 mM Hepes, pH 7.4) and then loaded with the voltage sensitive dye of the Membrane Potential Assay Kit diluted in tyrode for 1 h at room temperature.
After starting the measurement of fluorescence using a FLIPR Tetra (Molecular Devices, Exc. 510-545 nm, Emm. 565-625 nm), test compounds were added followed by the addition of KCl tyrode (final assay concentration: 70 mM KCl, 2 mM CaCl2, 1 mM MgCl2, 0.8 mM NaH2PO4, 5 mM Glucose, 28 mM Hepes, pH 7.4, including the voltage sensitive dye). The measurement was completed after 7 minutes.
The data were evaluated by using the ActivityBase XLfit software (IDBS) for curve fitting and calculation of the half-maximal effective concentration (EC50) and are reported as negative decadic logarithm (pE50).

[2] = system: Nippostrongylus brasiliensis; test: In Vitro Assay 2: Nippostrongylus brasiliensis (NIPOBR), acetylcholine esterase readout; conditions: adult worms, read-out: activity (reduction of AChE compared to negative control); for inhibition at 1 µg/mL: 1 μg/ml (1 ppm); for inhibition at 10 µg/mL: 10 μg/ml (10 ppm)
Method: In Vitro Assay 2: Nippostrongylus brasiliensis (NIPOBR)
Adult Nippostrongylus brasiliensis were washed with saline buffer containing 100 U/ml penicillin, 0.1 mg/ml streptomycin and 2.5 μg/ml amphotericin B. Test compounds were dissolved in DMSO and worms were incubated in medium in a final concentration of 10 μg/ml (10 ppm) respectively 1 μg/ml (1 ppm). An aliquot of the medium was used to determine the acetylcholine esterase activity in comparison to a negative control. The principle of measuring acetylcholine esterase as readout for anthelmintic activity was described in Rapson et al (1986) and Rapson et al (1987).

Cooperia curticei = conditions: 120 h, read-out: activity (larval mortality)
Method: In Vitro Assay 6: Cooperia curticei (COOPCU L3)
Solvent: dimethyl sulfoxide
Approximately 40 nematode larvae (Cooperia curticei) are transferred into a test tube containing the compound solution.
After 5 days percentage of larval mortality is recorded. 100% efficacy means all larvae are killed; 0% efficacy means no larvae are killed.

Haemonchus contortus = conditions: 120 h, read-out: activity (larval mortality)
Method: Solvent: dimethyl sulfoxide
Approximately 40 larvae of the red stomach worm (Haemonchus contortus) are transferred into a test tube containing compound solution.
After 5 days the percentage of larval mortality is recorded. 100% efficacy means all larvae are killed, 0% efficacy means no larvae are killed.

Sequence of C. elegans Slo-1a (Q95V25 whole entry): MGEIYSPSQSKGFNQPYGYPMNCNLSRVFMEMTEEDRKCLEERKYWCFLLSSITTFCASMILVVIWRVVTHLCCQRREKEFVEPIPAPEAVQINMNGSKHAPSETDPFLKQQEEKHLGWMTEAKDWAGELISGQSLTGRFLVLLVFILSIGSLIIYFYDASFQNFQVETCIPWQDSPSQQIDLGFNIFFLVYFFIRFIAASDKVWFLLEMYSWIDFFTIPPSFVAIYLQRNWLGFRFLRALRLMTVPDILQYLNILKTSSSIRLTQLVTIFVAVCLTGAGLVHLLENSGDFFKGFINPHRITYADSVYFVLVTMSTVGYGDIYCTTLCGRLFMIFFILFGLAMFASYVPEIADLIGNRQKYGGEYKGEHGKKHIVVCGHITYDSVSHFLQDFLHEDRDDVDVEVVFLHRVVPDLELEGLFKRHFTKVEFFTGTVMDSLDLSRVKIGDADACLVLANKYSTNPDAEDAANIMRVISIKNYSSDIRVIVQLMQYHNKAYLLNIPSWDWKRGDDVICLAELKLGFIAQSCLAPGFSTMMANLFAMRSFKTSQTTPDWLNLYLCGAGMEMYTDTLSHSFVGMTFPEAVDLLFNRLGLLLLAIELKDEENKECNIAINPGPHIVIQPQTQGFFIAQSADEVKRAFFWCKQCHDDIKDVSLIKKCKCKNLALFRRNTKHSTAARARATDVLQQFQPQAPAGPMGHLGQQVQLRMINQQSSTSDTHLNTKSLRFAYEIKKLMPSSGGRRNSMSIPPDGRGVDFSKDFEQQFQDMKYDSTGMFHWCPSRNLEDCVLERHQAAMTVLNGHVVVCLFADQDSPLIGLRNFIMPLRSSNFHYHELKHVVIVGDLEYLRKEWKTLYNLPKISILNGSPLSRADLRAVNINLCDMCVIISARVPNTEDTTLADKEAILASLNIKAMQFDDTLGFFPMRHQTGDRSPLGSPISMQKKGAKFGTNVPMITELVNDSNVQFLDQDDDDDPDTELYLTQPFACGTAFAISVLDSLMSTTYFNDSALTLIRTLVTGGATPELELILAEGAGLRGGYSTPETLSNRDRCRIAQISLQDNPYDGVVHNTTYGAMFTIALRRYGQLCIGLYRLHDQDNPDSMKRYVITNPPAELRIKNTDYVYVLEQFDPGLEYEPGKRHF

SMILES	EC50 [1] [µg/mL]	EC50 (C. elegans Slo-1a) [nM]	inhibition at 1 µg/mL [2] [%]	inhibition at 10 µg/mL [2] [%]	mortality at 20 ppm (Cooperia curticei) [%]	mortality at 20 ppm (Haemonchus contortus) [%]
Cc1nn2c(C(C)C)c(C(=O)N[C@H]3CCc4ccccc43)sc2c1-c1cccc(Cl)c1Cl [Example 15, 7-(2,3-dichlorophenyl)-N-[(1S)-2,3-dihydro-1H-inden-1-yl]-6-methyl-3-(propan-2-yl)pyrazolo[5,1-b][1,3]thiazole-2-carboxamide]	< 0.1	< 3.16	–	–	–	–
Cc1nn2c(C(C)C)c(C(=O)N[C@H]3CCOc4ccccc43)sc2c1-c1ccc(F)c(N(C)C)c1F [Example 6, N-[(4S)-3,4-dihydro-2H-chromen-4-yl]-7-[3-(dimethylamino)-2,4-difluorophenyl]-6-methyl-3-(propan-2-yl)pyrazolo[5,1-b][1,3]thiazole-2-carboxamide]	< 0.1	< 3.16	> 80	> 80	90	–
Cc1nn2c(C(C)C)c(C(=O)N[C@H]3CCOc4ccccc43)sc2c1-c1cc(Cl)cc(Cl)c1Cl [Example 12, N-[(4S)-3,4-dihydro-2H-chromen-4-yl]-6-methyl-3-(propan-2-yl)-7-(2,3,5-trichlorophenyl)pyrazolo[5,1-b][1,3]thiazole-2-carboxamide]	< 0.1	< 3.16	–	–	100	80
Cc1nn2c(C(C)C)c(C(=O)N[C@H]3CCOc4ccccc43)sc2c1-c1c(Cl)cccc1Cl [Example 10, 7-(2,6-dichlorophenyl)-N-[(4S)-3,4-dihydro-2H-chromen-4-yl]-6-methyl-3-(propan-2-yl)pyrazolo[5,1-b][1,3]thiazole-2-carboxamide]	< 0.1	< 3.16	–	–	–	–
Cc1nn2c(C(C)C)c(C(=O)N[C@H]3CCOc4ccccc43)sc2c1-c1ccc(Cl)c(Cl)c1 [Example 7, 7-(3,4-dichlorophenyl)-N-[(4S)-3,4-dihydro-2H-chromen-4-yl]-6-methyl-3-(propan-2-yl)pyrazolo[5,1-b][1,3]thiazole-2-carboxamide]	< 0.1	3.16 to 31.6	–	> 80	–	–
Cc1nn2c(C(C)C)c(C(=O)N[C@H]3CCOc4ccccc43)sc2c1-c1cccc(N(C)C)c1F [Example 13, N-[(4S)-3,4-dihydro-2H-chromen-4-yl]-7-[3-(dimethylamino)-2-fluorophenyl]-6-methyl-3-(propan-2-yl)pyrazolo[5,1-b][1,3]thiazole-2-carboxamide]	< 0.1	< 3.16	> 80	–	90	–
Cc1nn2c(C(C)C)c(C(=O)N[C@H]3CCOc4ccccc43)sc2c1-c1cccc(OC(F)(F)F)c1F [Example 4, N-[(4S)-3,4-dihydro-2H-chromen-4-yl]-7-[2-fluoro-3-(trifluoromethoxy)phenyl]-3-isopropyl-6-methylpyrazolo[5,1-b][1,3]thiazole-2-carboxamide]	< 0.1	< 3.16	–	> 80	80	80
Cc1nn2c(C(C)C)c(C(=O)N[C@H]3CCOc4ccccc43)sc2c1-c1cccc(C(F)(F)F)c1Cl [Example 11, 7-[2-chloro-3-(trifluoromethyl)phenyl]-N-[(4S)-3,4-dihydro-2H-chromen-4-yl]-6-methyl-3-(propan-2-yl)pyrazolo[5,1-b][1,3]thiazole-2-carboxamide]	< 0.1	< 3.16	–	–	100	90
Cc1nn2c(C(C)C)c(C(=O)N[C@H]3CCOc4ccccc43)sc2c1-c1cccc(C(F)(F)F)c1F [Example 3, 7-[2-fluoro-3-(trifluoromethyl)phenyl]-N-[(4S)-3,4-dihydro-2H-chromen-4-yl]-6-methyl-3-(propan-2-yl)pyrazolo[5,1-b][1,3]thiazole-2-carboxamide]	< 0.1	< 3.16	–	> 80	90	90
Cc1nn2c(C(C)C)c(C(=O)N[C@H]3CCOc4ccccc43)sc2c1-c1cc(Cl)cc(Cl)c1 [Example 1, 7-(3,5-dichlorophenyl)-N-[(4S)-3,4-dihydro-2H-chromen-4-yl]-3-isopropyl-6-methylpyrazolo[5,1-b][1,3]thiazole-2-carboxamide]	< 0.1	3.16 to 31.6	> 80	> 80	–	90
Cc1nn2c(C(C)C)c(C(=O)N[C@H]3CCOc4ccccc43)sc2c1-c1ccc(F)c(F)c1 [Example 8, 7-(3,4-difluorophenyl)-N-[(4S)-3,4-dihydro-2H-chromen-4-yl]-6-methyl-3-(propan-2-yl)pyrazolo[5,1-b][1,3]thiazole-2-carboxamide]	< 0.1	3.16 to 31.6	–	–	–	–
Cc1nn2c(C(C)C)c(C(=O)N[C@H]3CCOc4ccccc43)sc2c1-c1cccc(Cl)c1Cl [Example 2, 7-(2,3-dichlorophenyl)-N-[(4S)-3,4-dihydro-2H-chromen-4-yl]-6-methyl-3-(propan-2-yl)pyrazolo[5,1-b][1,3]thiazole-2-carboxamide]	< 0.1	< 3.16	–	> 80	90	–
Cc1nn2c(C(C)C)c(C(=O)N[C@H]3CCc4ccccc43)sc2c1-c1cc(Cl)c(F)c(Cl)c1 [Example 14, 7-(3,5-dichloro-4-fluorophenyl)-N-[(1S)-2,3-dihydro-1H-inden-1-yl]-6-methyl-3-(propan-2-yl)pyrazolo[5,1-b][1,3]thiazole-2-carboxamide]	< 0.1	3.16 to 31.6	> 80	> 80	–	–
Cc1nn2c(C(C)C)c(C(=O)N[C@H]3CCOc4ccccc43)sc2c1-c1ccc(F)c(F)c1F [Example 9]	< 0.1	3.16 to 31.6	–	–	90	–
Cc1nn2c(C(C)C)c(C(=O)N[C@H]3CCOc4ccccc43)sc2c1-c1cc(Cl)c(F)c(Cl)c1 [Example 5, 7-(3,5-dichloro-4-fluorophenyl)-N-[(4S)-3,4-dihydro-2H-chromen-4-yl]-3-isopropyl-6-methylpyrazolo[5,1-b][1,3]thiazole-2-carboxamide]	< 0.1	< 3.16	> 80	> 80	90	–
